pEC50: −log10 of the molar value.

What is called pEC50 is the EC50 on a negative log10 scale, so that one unit is a factor of ten. A higher pEC50 goes with a small EC50.

The test system of experiment [1] is Jun.EpoR.del3 (ZipEpoR.del3: cJunzip.hEpoRmut.del3, cJun SEQ ID NO: 9, hEpoRmut SEQ ID NO: 16; 3 amino acid TM domain deletion). The experiment in a line: Frequency of pSTAT5+ cells after ruxolitinib treatment, T cells expressing Jun.EpoR.del3 ZipR. It counts as cell-based. Particulars: role: inhibitor; STAT5 phosphorylation (pSTAT5+ cells), human T cells, 48-hour treatment. The source says: (§1) FIGS. 2A-2F show Jun leucine zipper-based homodimers activating STAT5 resulting in improved T cell viability, and that they are inhibited by ruxolitinib. (FIGS. 2A and 2B) pSTAT5 geometric mean fluorescence intensity (FIG. 2A) or percent positive (FIG. 2B) in Jun ZipR+ cells (N=4 biological replicates, One-way ANOVA, ** p<0.01, *** p<0.001, **** p<0.0001). (FIGS. 2C-2E) Frequency of pSTAT5+ cells following 48-hour treatment with indicated concentrations of ruxolitinib in vitro (N=3 biological replicates). (FIG. 2F) Frequency of dead cells (Annexin V+ Dead+), apoptotic cells (Annexin V+ Dead-), necrotic cells (Annexin V− Dead+), and live cells (Annexin V− Dead-) after 7 days of cytokine starvation without or with treatment of 5 M ruxolitinib in vitro (N=2 biological replicates, two-way ANOVA, **** p<0.0001 on Live cell population)
(§2) The following constructs were generated and tested: • i) Jun.IL-2Rβ chain constructs with 0 to 6 alanine insertions to interrogate all potential intracellular orientations; • ii) Jun.EpoR constructs with 0, 1, 3, or 5 amino acid TM domain deletions to interrogate receptors with 0, 100, 300, or 500 degrees of rotation; • iii) Jun. GHR; and • iv) Jun. 18B.MyD88 fused to EpoR or GHR (Jun.MyD88.EpoR or Jun.MyD88.GHR).
(§3) As a potential safety switch for the constitutively active homodimeric ZipRs, T cells expressing Jun.EpoR ZipRs or the Jun. […]

Experiment [2] relates to Jun.GHR (ZipGHR: cJunzip.hGHR, cJun SEQ ID NO: 9, hGHR SEQ ID NO: 20). The experiment is described as follows: Frequency of pSTAT5+ cells after ruxolitinib treatment, T cells expressing Jun.GHR ZipR. Format: cell-based. Particulars: role: inhibitor; STAT5 phosphorylation (pSTAT5+ cells), human T cells, 48-hour treatment.
Source text: as §1
(§4) As a potential safety switch for the constitutively active homodimeric ZipRs, T cells expressing Jun.EpoR ZipRs or the Jun. GHR ZipRs were treated with increasing concentrations of ruxolitinib, an FDA-approved JAK1/2 inhibitor. All ZipRs were inhibited by ruxolitinib (FIGS. 2C-2E) as judged by their ability to phosphorylate STAT5.
(§5) Generation of ZipR transduced T cells. […]

Experiment [3] concerns Jun.EpoR (ZipEpoR: cJunzip.hEpoRmut, cJun SEQ ID NO: 9, hEpoRmut SEQ ID NO: 10). The experiment in a line: Frequency of pSTAT5+ cells after ruxolitinib treatment, T cells expressing Jun.EpoR ZipR. Format: cell-based. The note with it: role: inhibitor; STAT5 phosphorylation (pSTAT5+ cells), human T cells, 48-hour treatment.
Source text: as §1, §4, §5

Experiment [4] relates to Jun.EpoR.del5 (ZipEpoR.del5: cJunzip.hEpoRmut.del5, cJun SEQ ID NO: 9, hEpoRmut SEQ ID NO: 18; 5 amino acid TM domain deletion). The experiment is described as follows: Frequency of pSTAT5+ cells after ruxolitinib treatment, T cells expressing Jun.EpoR.del5 ZipR. Format: cell-based. Particulars: role: inhibitor; STAT5 phosphorylation (pSTAT5+ cells), human T cells, 48-hour treatment.
Source text: as §1, §2, §3

In experiment [5] the test system is Jun.EpoR.del1 (ZipEpoR.del1: cJunzip.hEpoRmut.del1, cJun SEQ ID NO: 9, hEpoRmut SEQ ID NO: 14; 1 amino acid TM domain deletion). The experiment in a line: Frequency of pSTAT5+ cells after ruxolitinib treatment, T cells expressing Jun.EpoR.del1 ZipR. Format: cell-based. Particulars: role: inhibitor; STAT5 phosphorylation (pSTAT5+ cells), human T cells, 48-hour treatment.
Source text: as §1, §2, §3

The test system of experiment [6] is Jun.EpoR- or Jun.GHR ZipRs expressing human T cells. The experiment in a line: T cell survival after 7-day cytokine starvation with concurrent ruxolitinib treatment. Particulars: role: inhibitor, 7 days without cytokines, printed as 5 M in FIG. 2F legend. It counts as cell-based.
Source text: as §1
In addition to activation of STAT5, the ability for Jun ZipRs to improve T cell function was determined. Jun.EpoR- or Jun.GHR ZipRs expressing human T cells were cultured without cytokines for 7 days in vitro before quantifying the frequency of live, dead, and dying cells. ZipR signaling allowed cells to survive 7-day cytokine starvation, which was abrogated by concurrent treatment with ruxolitinib (FIG. 2F). […]
Cytokine starvation. […] To quantify apoptosis, cells were labeled with annexin V (BD Biosciences) and eBioscience Fixable viability dye (Invitrogen).

In experiment [7] the test system is Jun.EpoR ZipRs or the Jun.GHR ZipRs. The experiment is described as follows: Ability of ZipRs to phosphorylate STAT5 under ruxolitinib treatment, T cells expressing Jun.EpoR ZipRs or Jun.GHR ZipR. Format: cell-based, human. The note with it: role: inhibitor; increasing concentrations of ruxolitinib.
Source text: as §1, §4, §5

Regarding `N#CC[C@H](C1CCCC1)n1cc(-c2ncnc3[nH]ccc23)cn1` [Ruxolitinib, ruxolitinib], the pEC50 was 7.24 in experiment [1]; 8.20 in experiment [2]; 6.18 in experiment [3]; 7.03 in experiment [4]; 6.32 in experiment [5]. The “survival of 7-day cytokine starvation by ZipR signaling” value in experiment [6] is “abrogated”. For the same molecule, the “inhibition of ZipRs as judged by their ability to phosphorylate STAT5” value in experiment [7] is recorded as “inhibited”.

The record behind these values is US20260306631A1, “CHIMERIC RECEPTORS” (St. Jude Children's Research Hospital, Inc., priority 2023, published 2026).
